The structures appear in SMILES notation. pIC50: −log10 of the molar value.

We go through 23 molecules from patent US11459327B1, “Cycloalkyl and hetero-cycloalkyl inhibitors, preparation methods therefor, and use thereof” (Suzhou Zelgen Biopharmaceuticals Co., Ltd., priority 2019, dated 2022).

The subject of the experiment is NCI-H358(KRAS^G12C mutation) cells. The experiment can be described thus: Cell assay of antiproliferative activity (Celltiter-Glo, 5 days) against NCI-H358 cells. The format is cell-based. To be noted: 5 days incubation. As for the experimental part: Cell assay of antiproliferative activity of compounds against NCI-H358(KRAS^G12C mutation) and A549(KRAS^G12S mutation) cells.
40 μl phosphate buffer was added to the outer wells of the 384 microplate, and 40 μl cell suspension to be tested was added to the other wells. Then the microplate was incubated in a carbon dioxide incubator overnight.
The compounds to be tested were gradiently diluted, each compound was performed 10 concentration gradients (diluted from 50 μM to 0.003 μM) and added 100 nL to the corresponding wells in the microplate. After addition, 40 μl of phosphate buffer was added to each well in rows A and P and columns 1 and 24, and then the microplate was incubated in a carbon dioxide incubator for 5 days.
20 μL of Promega Celltiter-Glo reagent was added to each well of the microplate, and then the luminescence signal was stabilized by oscillating at room temperature for 10 min. Then PekinElmer Envision multi-label analyzer was used to read.
Finally, GraphPad Prism software was used to calculate the IC50 value of the compound and the fitting curve was drawn.
Anti-proliferative activity of the compounds of the present invention against NCI-H358(KRAS^G12C mutation) and A549(KRAS^G12S mutation) cells were shown in Table 1.
In general terms: Cellular ATP, detected with luciferase, serves as a proxy for viable cell number.

The pIC50 is the negative decadic logarithm of the IC50, by convention in mol/L. Low readings indicate a high IC50, high ones a low IC50. In turn, `C=CC(=O)N1CCN(c2nc(OCC3(CN(C)C)CC3)nc3c2CC(C)N(c2cccc4cccc(Cl)c24)C3)CC1CC#N` (single isomer, unassigned) [Example 29A, 2-(1-acroloyl-4-(7-(8-chloronaphthalen-1-yl)-2-((1-((dimethylamino)methyl)cyclopropyl)methoxyl)-6-methyl-5,6,7,8-tetrahydropyrido [3,4-d]pyrimidin-4-yl)piperazin-2-yl) acetonitrile] showed a pIC50 of 6.44. In turn, `C=CC(=O)N1CCN(c2nc(OCC3(CN(C)C)CC3)nc3c2CC(C)N(c2cccc4cccc(Cl)c24)C3)CC1CC#N` (single isomer, unassigned) [Example 29B, 2-(1-acroloyl-4-(7-(8-chloronaphthalen-1-yl)-2-((1-((dimethylamino)methyl)cyclopropyl)methoxyl)-6-methyl-5,6,7,8-tetrahydropyrido [3,4-d]pyrimidin-4-yl)piperazin-2-yl) acetonitrile] had a pIC50 of 7.28.

In turn, `C=CC(=O)N1CCN(c2nc(OCC3(CN(C)C)CC3)nc3c2CC(C)N(c2cccc4cccc(Cl)c24)C3)CC1CC#N` (single isomer, unassigned) [Example 29C, 2-(1-acroloyl-4-(7-(8-chloronaphthalen-1-yl)-2-((1-((dimethylamino)methyl)cyclopropyl)methoxyl)-6-methyl-5,6,7,8-tetrahydropyrido [3,4-d]pyrimidin-4-yl)piperazin-2-yl) acetonitrile] gave a pIC50 of 7.00. Same read-out and setting: as for `C=CC(=O)N1CCN(c2nc(OCC3(CN(C)C)CC3)nc3c2CC(C)N(c2cccc4cccc(Cl)c24)C3)CC1CC#N` (single isomer, unassigned) [Example 29D, 2-(1-acroloyl-4-(7-(8-chloronaphthalen-1-yl)-2-((1-((dimethylamino)methyl)cyclopropyl)methoxyl)-6-methyl-5,6,7,8-tetrahydropyrido [3,4-d]pyrimidin-4-yl)piperazin-2-yl) acetonitrile], the figure is 8.22. The same measure, in the same setting: as for `C=CC(=O)N1CCN(c2nc(OCCN(C)C3(C)CCC3)nc3c2CCN(c2cccc4cccc(Cl)c24)C3)CC1CC#N` (centres unmarked) [Example 23, 2-(1-acroloyl-4-(7-(8-chloronaphthalen-1-yl)-2-(2-(methyl(1-methylcyclobutyl)amino)ethoxy)-5,6,7,8-tetrahydropyrido[3,4-d]pyrimidin-4-yl)piperazin-2-yl) acetonitrile], the figure is 7.89. For the molecule `C=C(F)C(=O)N1CCN(c2nc(OCC3(CN(C)C)COC3)nc3c2CCN(c2cccc4cccc(Cl)c24)C3)CC1CC#N` (centres unmarked) [Example 25, 2-(4-(7-(8-chloronaphthalen-1-yl)-2-((3-((dimethylamino)methyl)oxetan-3-yl)methoxy)-5,6,7,8-tetrahydropyrido[3,4-d]pyrimidin-4-yl)-1-(2-fluoroacroloyl)piperazin-2-yl) acetonitrile], the pIC50 (Homo sapiens, NCI-H358, 120 h) was 7.23.

`C=CC(=O)N1CCN(c2nc(OCC3(CNC)CC3)nc3c2CCN(c2cccc4cccc(Cl)c24)C3)CC1CC#N` (centres unmarked) [Example 26, 2-(1-acroloyl-4-(7-(8-chloronaphthalen-1-yl)-2-((1-((methylamino)methyl)cyclopropyl)methoxy)-5,6,7,8-tetrahydropyrido[3,4-d]pyrimidin-4-yl)piperazin-2-yl) acetonitrile] gave a pIC50 of 7.21. Turning to `C=C(F)C(=O)N1CCN(c2nc(OCC3(CN(C)C)CC3)nc3c2CCN(c2cccc4ccc(F)c(Cl)c24)C3)C[C@@H]1CC#N` [Example 28], the pIC50 (Homo sapiens, NCI-H358, 120 h) is 8.10.

As to `C=CC(=O)N1CCN(c2nc(OCC3(N(C)C)CC3)nc3c2CCN(c2cccc4cccc(Cl)c24)C3)CC1CC#N` (centres unmarked) [Example 30], for the setting “Homo sapiens, NCI-H358, 120 h”, the pIC50 was 7.39. Still for that read-out and setting: as for `C=CC(=O)N1CCN(c2nc(OCCN(C)C3(COC)CCC3)nc3c2CCN(c2cccc4cccc(Cl)c24)C3)CC1CC#N` (centres unmarked) [Example 31, 2-(acroloyl-4-(7-(8-chloronaphthalen-1-yl)-2-(2-((1-(methoxymethyl)cyclobutyl)(methyl)amino)ethoxy)-5,6,7,8-tetrahydropyrido[3,4-d]pyrimidin-4-yl)piperazin-2-yl) acetonitrile], the figure is 7.14. The same measure, in the same setting: as for `C=CC(=O)N1CCN(c2nc(OCC3(CN(C)C4CC4)COC3)nc3c2CCN(c2cccc4cccc(Cl)c24)C3)CC1CC#N` (centres unmarked) [Example 32, 2-(1-acroloyl-4-(7-(8-chloronaphthalen-1-yl)-2-((3-((cyclopropyl(methyl)amino)methyl)oxetan-3-yl)methoxyl)-5,6,7,8-tetrahydropyrido[3,4-d]pyrimidin-4-yl)piperazin-2-yl) acetonitrile], the figure is 6.92; as for `C=C(F)C(=O)N1CCN(c2nc(OCCN(C)C3(C)CCC3)nc3c2CCN(c2cccc4ccc(F)c(Cl)c24)C3)CC1CC#N` (centres unmarked) [Example 33, 2-(4-(7-(8-chloro-7-fluoronaphthalen-1-yl)-2-(2-(methyl(1-methylcyclobutyl)amino)ethoxy)-5,6,7,8-tetrahydropyrido[3,4-d]pyrimidin-4-yl)-1-(2-fluoroacroloyl)piperazin-2-yl) acetonitrile], 7.18; as for `C=CC(=O)N1C[C@@H](C)N(c2nc(OCC3(CN(C)C)CC3)nc3c2CCN(c2cccc4cccc(Cl)c24)C3)C[C@@H]1C` [Example 34, 1-((2S,5R)-4-(7-(8-chloronaphthalen-1-yl)-2-((1-((dimethylamino)methyl)cyclopropyl)methoxyl)-5,6,7,8-tetrahydropyrido[3,4-d]pyrimidin-4-yl)-2,5-dimethylpiperazin-1-yl)prop-2-ene-1-one], 5.72. As for `C=C(F)C(=O)N1CCN(c2nc(OCC3(CN(C)C)CC3)nc3c2CCN(c2c(C)ccc4[nH]ncc24)C3)C[C@@H]1CC#N` [Example 35], for the setting “Homo sapiens, NCI-H358, 120 h”, the negative-log IC50 (pIC50) is 6.51.

Under “Homo sapiens, NCI-H358, 120 h”, `[2H]C([2H])([2H])N(CC1(COc2nc3c(c(N4CCN(C(=O)C(=C)F)[C@@H](CC#N)C4)n2)CCN(c2c(C)ccc4[nH]ncc24)C3)CC1)C([2H])([2H])[2H]` [Example 36] had a pIC50 of 6.60. The same measure, in the same setting: as for `C=CC(=O)N1[C@@H]2CC[C@H]1CN(c1nc(OCC3(CN(C)C)CC3)nc3c1CCN(c1cccc4cccc(Cl)c14)C3)C2` [Example 37, 1-((1R,5S)-3-(7-(8-chloronaphthalen-1-yl)-2-((1-((dimethylamino)methyl)cyclopropyl)methoxyl)-5,6,7,8-tetrahydropyrido[3,4-d]pyrimidin-4-yl)-3,8-diazabicyclo[3.2.1]octane-8-yl)prop-2-ene-1-one], the figure is 5.85; as for `C=CC(=O)N1CC2CN(c3nc(OCC4(CN(C)C)CC4)nc4c3CCN(c3cccc5cccc(Cl)c35)C4)CC2C1` (centres unmarked) [Example 38, 1-(5-(7-(8-chloronaphthalen-1-yl)-2-((1-((dimethylamino)methyl)cyclopropyl)methoxyl)-5,6,7,8-tetrahydropyrido[3,4-d]pyrimidin-4-yl)hexahydropyrrolo[3,4-c]pyrrole-2(1H)-yl)prop-2-ene-1-one], 5.31; as for `C=CC(=O)N1CCN(c2nc(OCC3(CN(C)C)CC3)nc3c2CCN(c2cccc4cccc(Cl)c24)C3)CC12CC2` [Example 39, 1-(7-(7-(8-chloronaphthalen-1-yl)-2-((1-((dimethylamino)methyl)cyclopropyl)methoxyl)-5,6,7,8-tetrahydropyrido[3,4-d]pyrimidin-4-yl)-4,7-diazaspiro[2.5]octane-4-yl)prop-2-ene-1-one], 5.60. For the setting “Homo sapiens, NCI-H358, 120 h”, `C=CC(=O)N1CC2(C1)CN(c1nc(OCC3(CN(C)C)CC3)nc3c1CCN(c1cccc4cccc(Cl)c14)C3)C2` [Example 40, 1-(6-(7-(8-chloronaphthalen-1-yl)-2-((1-((dimethylamino)methyl)cyclopropyl)methoxyl)-5,6,7,8-tetrahydropyrido[3,4-d]pyrimidin-4-yl)-2,6-diazaspiro[3.3]heptane-2-yl)prop-2-ene-1-one] showed a pIC50 of 6.52. For `C=CC(=O)N1CCN(c2nc(OCC3(CN(C)C)CC3)nc3c2CCN(c2cccc4cccc(Cl)c24)C3)CC1C(F)(F)F` (centres unmarked) [Example 41, 1-(-4-(7-(8-chloronaphthalen-1-yl)-2-((1-((dimethylamino)methyl)cyclopropyl)methoxyl)-5,6,7,8-tetrahydropyrido[3,4-d]pyrimidin-4-yl)-2-(trifluoromethyl)piperazin-1-yl)prop-2-ene-1-one], the pIC50 (Homo sapiens, NCI-H358, 120 h) is 5.85.

In the case of `C=CC(=O)N1CC2CC1CN2c1nc(OCC2(CN(C)C)CC2)nc2c1CCN(c1cccc3cccc(Cl)c13)C2` (centres unmarked) [Example 42, 1-(5-(7-(8-chloronaphthalen-1-yl)-2-((1-((dimethylamino)methyl)cyclopropyl)methoxyl)-5,6,7,8-tetrahydropyrido[3,4-d]pyrimidin-4-yl)-2,5-diazabicyclo[2.2.1]heptane-2-yl)prop-2-ene-1-one], where the note is “Homo sapiens, NCI-H358, 120 h”, the pIC50 is 5.26. Compared with the last molecule, the pIC50 is 0.59 log units lower. Under “Homo sapiens, NCI-H358, 120 h”, `C=CC(=O)N1CC2CCC1CN2c1nc(OCC2(CN(C)C)CC2)nc2c1CCN(c1cccc3cccc(Cl)c13)C2` (centres unmarked) [Example 43, 1-(5-(7-(8-chloronaphthalen-1-yl)-2-((1-((dimethylamino)methyl)cyclopropyl)methoxyl)-5,6,7,8-tetrahydropyrido[3,4-d]pyrimidin-4-yl)-2,5-diazabicyclo[2.2.2]octane-2-yl)prop-2-ene-1-one] had a pIC50 of 6.08.

In turn, `C=CC(=O)N1CC2(CCN(c3nc(OCC4(CN(C)C)CC4)nc4c3CCN(c3cccc5cccc(Cl)c35)C4)C2)C1` [Example 44, 1-(6-(7-(8-chloronaphthalen-1-yl)-2-((1-((dimethylamino)methyl)cyclopropyl)methoxyl)-5,6,7,8-tetrahydropyrido[3,4-d]pyrimidin-4-yl)-2,6-diazaspiro[3.4]octane-2-yl)prop-2-ene-1-one] had a pIC50 (Homo sapiens, NCI-H358, 120 h) of 5.48.
